Test results taken from the NIST ThermoML archive (doi:10.1021/je101014q).
± gives the expanded uncertainty stated by the source.

Assay: xn = mol fraction of the nth substance listed
Details: 101 kPa, Liquid, Cone and plate viscometry

CC(=O)[O-].CCCC[N+](CC)(CC)CC [N,N,N-triethylbutanaminium acetate] + O
viscosity [mPa·s]
Details | x1 = 0.17 | x1 = 0.33 | x1 = 0.5 | x1 = 1
298.2 K | 13 ± 1 | 66 ± 2 | 79 ± 3 | 439 ± 23
313.2 K | 10.9 ± 0.4 | 39.4 ± 1.3 | 55.5 ± 1.8 | 306.7 ± 14
333.2 K | 5.15 ± 0.18 | 12.6 ± 0.5 | 15.6 ± 0.6 | 47.3 ± 3
